Laboratory results: patent US11051777B2, “Imaging neurological disease” (GE Healthcare Limited, priority 2013, dated 2021)
Several values for one entry are separate records, joined by “and”; a condition that tells them apart may be missing. Identical values can stand only once.

Assays:
Type in all cases: in vivo
[1] = target: T1, dopamine transporter (Homo sapiens, UniProt Q01959); experiment: Striatum right:left ratio from DaTSCAN SBR data of normal subjects, ENCDAT database
T1 construct: from tissue; host or cells: striatum of living normal human subjects (in vivo SPECT imaging, ENCDAT and PPMI databases)
From the text: Using the method of the present invention, the data from Example 1 was used to calculate a striatum right:left ratio:
Table 3 below uses SBR data for normal subjects from the ENC DAT database. Three subjects from each of five different sites are shown, but the overall average is based on data from 11 sites: […]

[2] = target: T1, dopamine transporter; experiment: Patient classification from Datscan clinical trial data using SBR only, versus clinical diagnosis
Description: The data from two GE Healthcare Ltd clinical trials of Datscan™: • (i) comparing PD and ET; • (ii) clinically uncertain PD; 104 patients in total were analysed using SBR calculation only. Each determination was compared with the patient determination based on clinical symptoms.
This gives a sensitivity of 71%, specificity of 96% and accuracy of 82% for the SBR technique. The clinical diagnosis was assumed to be the ‘true’ diagnosis, and sensitivity and specificity can then be calculated. Sensitivity=100×True Positives/(True Positives+False Negatives)=100×42/59=71%. Specificity=100×True Negatives/(True Negatives+False Positives)=100×43/45=96%. Accuracy=100×(True Positives+True Negatives)/Population=100×(42+43)/104=82%.

[3] = target: T1, dopamine transporter; experiment: Striatal binding ratio (SBR) from DaTSCAN images of normal subjects, ENCDAT database; details: mean ±1 SD
Description: The European Association of Nuclear Medicine RESEARCH4LIFE© initiative (“EARL”) has been compiling a database of DaTSCAN images of normal human subjects since 2007 (see http://earl.eanm.org/cms/website.php?id=/en/projects/enc-dat.htm). The ENCDAT database includes 150 normal subjects—with data from a range of camera types. SBR was calculated for the 150 normal subjects (Group A):
[formula] • where: • SBR=specific binding ratio or striatum binding ratio, • ROI=region of interest. Brain imaging data for n=37 normal subjects acquired on GE cameras in the ENCDAT database was used for the calculation of SBR (Group B). SBR for an illustrative patient from the ENCDAT database is also shown: […]

[4] = target: T1, dopamine transporter; experiment: Patient classification from Datscan clinical trial data using SBR plus L/R asymmetry, versus clinical diagnosis
Description: The 104 patient data set from Example 4 was analysed using SBR together with the L/R asymmetry of the present invention.

[5] = target: T1, dopamine transporter; experiment: Normal database (PPMI, ENCDAT) DaTSCAN scans, SBR method averaged per decade of life; details: normal subjects
Description: Two databases of scans of DaTSCAN™ (GE Healthcare Ltd) normal human subjects were evaluated using: • (i) the SBR method of the prior art (see Example 1), with the occipital cortex as the reference region; • (ii) the L/R ratio method of the present invention. The PPMI database was of 122 subjects (age range 31-84; 62% male 38% female). The ENCDAT database was of 122 subjects (age range 20-82; 52% male 48% female). The data from all subjects in each decade of life (20 s, 30 s etc) were averaged.

[6] = WHOLE mean, overall average of 11 sites
[7] = individual normal subjects, three per site, sites 1-5
[8] = SBR technique, clinical diagnosis as truth
[9] = Normal A: 150 normal subjects, range of camera types
[10] = Normal B: n=37 normal subjects, GE cameras
[11] = 104 patients, SBR with L/R asymmetry
[12] = SBR plus asymmetry, clinical diagnosis as truth

T1 sequence (Q01959 whole entry): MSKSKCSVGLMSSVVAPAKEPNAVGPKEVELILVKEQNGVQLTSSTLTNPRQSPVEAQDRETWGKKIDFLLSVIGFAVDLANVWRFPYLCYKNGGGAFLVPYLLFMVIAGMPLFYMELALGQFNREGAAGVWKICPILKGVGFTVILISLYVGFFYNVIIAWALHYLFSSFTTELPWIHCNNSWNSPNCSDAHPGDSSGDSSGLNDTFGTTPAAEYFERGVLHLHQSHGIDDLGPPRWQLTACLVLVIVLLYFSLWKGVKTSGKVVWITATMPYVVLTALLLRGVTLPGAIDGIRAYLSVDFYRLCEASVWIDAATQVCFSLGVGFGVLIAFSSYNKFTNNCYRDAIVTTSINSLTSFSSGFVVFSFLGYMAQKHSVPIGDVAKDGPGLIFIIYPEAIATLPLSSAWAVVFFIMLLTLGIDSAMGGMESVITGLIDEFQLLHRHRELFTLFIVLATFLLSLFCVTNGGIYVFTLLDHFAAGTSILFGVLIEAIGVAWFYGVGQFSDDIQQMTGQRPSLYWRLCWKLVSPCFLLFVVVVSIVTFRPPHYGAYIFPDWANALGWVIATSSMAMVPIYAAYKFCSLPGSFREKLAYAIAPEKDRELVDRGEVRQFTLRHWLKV

COC(=O)[C@H]1[C@@H](c2ccc([123I])cc2)C[C@@H]2CC[C@H]1N2CCCF [DaTSCAN, ^123I-ioflupane]
SBR left, normal range ([1]; Normal range (+/-1 SD)): 1.79-3.05 | SBR right, normal range ([1]; Normal range (+/-1 SD)): 1.78-3.04 | Striatum Right:left, normal range ([1]; Normal range (+/-1 SD)): 0.96-1.04 | Striatum Right:left ([1]; Normal subjects, mean +/-1 SD): 1.00 +/− 0.04 | Anterior putamen R:L ratio [1, 6]: 1.00 | Caudate R:L ratio [1, 6]: 0.99 | Posterior Putamen R:L ratio [1, 6]: 1.01 | Putamen R:L ratio [1, 6]: 1.01 | SBR Striatum L [1, 6]: 2.88 | SBR Striatum R [1, 6]: 2.88 | Striatum R:L ratio [1, 6]: 1.00 | Anterior putamen R:L ratio [1, 7]: 1.03 (2×) and 1.00 (4×) and 0.91 and 0.98 and 0.97 and 1.01 (3×) and 1.06 and 0.99 and 0.96 | Caudate R:L ratio [1, 7]: 0.98 and 1.02 and 0.97 and 1.05 (3×) and 0.89 and 1.03 (3×) and 1.15 and 1.11 and 1.07 and 0.94 and 1.01 | Posterior Putamen R:L ratio [1, 7]: 1.03 and 1.08 and 1.18 (2×) and 1.00 and 1.05 and 0.99 and 1.20 and 1.07 (3×) and 1.02 and 1.11 (2×) and 0.93 | Putamen R:L ratio [1, 7]: 1.03 (2×) and 1.02 and 1.04 (2×) and 1.05 (2×) and 0.93 and 1.00 (3×) and 0.98 and 1.06 and 1.07 and 0.99 | SBR Striatum L [1, 7]: 3.25 and 2.58 and 3.11 and 2.60 and 2.94 and 1.88 and 4.03 and 2.33 and 3.28 and 2.62 and 2.37 and 2.50 and 4.79 and 3.22 and 3.09 | SBR Striatum R [1, 7]: 3.29 and 2.65 and 3.16 and 2.74 and 2.69 and 1.91 and 4.06 and 2.56 and 3.57 and 2.70 and 2.37 and 2.62 and 4.93 and 3.23 and 3.15 | Striatum R:L ratio [1, 7]: 1.01 (2×) and 1.03 (3×) and 1.02 (3×) and 1.05 (2×) and 0.92 and 1.10 and 1.09 and 1.00 (2×) | number of subjects: SBR Abnormal, Clinical Abnormal ([2]; 104 patients, SBR only): 42 | number of subjects: SBR Abnormal, Clinical Normal ([2]; 104 patients, SBR only): 2 | number of subjects: SBR Normal, Clinical Abnormal ([2]; 104 patients, SBR only): 17 | number of subjects: SBR Normal, Clinical Normal ([2]; 104 patients, SBR only): 43 | accuracy [2, 8]: 82% | sensitivity [2, 8]: 71% | specificity [2, 8]: 96% | SBR Striatum left [3, 9]: 2.88 ± 0.69 and 2.88 +/− 0.69 | SBR Striatum right [3, 9]: 2.88 ± 0.65 and 2.88 +/− 0.65 | SBR Striatum left [3, 10]: 2.42 +/− 0.63 | SBR Striatum right [3, 10]: 2.41 +/− 0.63 | number of subjects: SBR + Asymmetry Abnormal, Clinical Abnormal [4, 11]: 54 | number of subjects: SBR + Asymmetry Abnormal, Clinical Normal [4, 11]: 11 | number of subjects: SBR + Asymmetry Normal, Clinical Abnormal [4, 11]: 5 | number of subjects: SBR + Asymmetry Normal, Clinical Normal [4, 11]: 34 | accuracy [4, 12]: 85% | sensitivity [4, 12]: 92% | specificity [4, 12]: 76% | SBR ([5]; eighties age group): about 2.2 | SBR ([5]; thirties age group): about 3.2
